Read-outs that look alike come from different tables or passages of the source.
Columns and labels:
CDK4/CyclinD1 = target: T1, CDK4/CyclinD1 (Homo sapiens, UniProt P11802); assay: Assay for inhibition of CDK4/CyclinD1 (Caliper microfluidic kinase assay); format: biochemical
T1 construct: purchased Thermofisher PR8064A
Experimental: The CDK4 enzyme assay for IC50 determination was performed as follows. Microfluidic kinase detection technology (Caliper) was used to monitor the phosphorylation of peptide substrate by CDK4/CyclinD1. The total reaction volume was 15 μL containing buffer A (100 mM HEPES (pH 7.5), 0.1% BSA, 0.01% Triton X-100, 1 mM DTT, 10 mM MgCl2, 10 μM Sodium Orthovanadate, 10 μM Beta-Glycerophosphate), 200 μM ATP, 1 nM CDK4/CyclinD1 (Thermofisher, PR8064A), 1 μM FL-34 (5-FAM-[…]), and the test compound at appropriate dilutions in DMSO. All components were added to the 384-well plate (Corning, 4514), and incubated at Room Temperature for 3 hours. The reaction was terminated by addition of 15 μL Stop Buffer (180 mM HEPES (pH 7.5), 20 mM EDTA, Coating-3 reagent (PerkinElmer, 760050)). The plate was then loaded on Caliper EZ Reader (EZ Reader II, PerkinElmer, HD-4HYSG2772), and the reaction mixtures including substrate and product were sipped into the microfluidic chip for separation and detection. The IC50 values of the test compound were determined by fitting the inhibition curves by 4 parameter sigmoidal dose-response model using the Xlfit5/GraphPad Prism 5 software.

CDK2/CyclinE1 = target: T2, CDK2/CyclinE1 (Homo sapiens, UniProt P24941); assay: Assay for inhibition of CDK2/CyclinE1 (Caliper microfluidic kinase assay); format: biochemical; conditions: read-out: CDK2 IC50
T2 construct: purchased SignalChem C29-18G
Experimental: The CDK2 enzyme assay for IC50 determination was performed as follows. Microfluidic kinase detection technology (Caliper) was used to monitor the phosphorylation of peptide substrate by CDK2/CyclinE1. The total reaction volume was 15 μL containing buffer A (100 mM HEPES (pH 7.5), 0.1% BSA, 0.01% Triton X-100, 1 mM DTT, 10 mM MgCl2, 10 μM Sodium Orthovanadate, 10 μM Beta-Glycerophosphate), 100 μM ATP, 5 nM CDK2/CyclinE1 (SignalChem, C29-18G), 5 μM FL-18 (5-FAM-QSPKKG-NH2), and the test compound at appropriate dilutions in DMSO. All components were added to the 384-well plate (Corning, 4514), and incubate at Room Temperature for 3 hours. The reaction was terminated by addition of 15 μL Stop Buffer (180 mM HEPES (pH 7.5), 20 mM EDTA, Coating-3 reagent (PerkinElmer, 760050)). The plate was loaded on Caliper EZ Reader (EZ Reader II, PerkinElmer, HD-4HYSG2772), and the reaction mixtures including substrate and product were sipped into the microfluidic chip for separation and detection. The IC50 values of the test compound were determined by fitting the inhibition curves by 4 parameter sigmoidal dose-response model using the Xlfit5/GraphPad Prism 5 software.

T1 sequence (P11802 whole entry): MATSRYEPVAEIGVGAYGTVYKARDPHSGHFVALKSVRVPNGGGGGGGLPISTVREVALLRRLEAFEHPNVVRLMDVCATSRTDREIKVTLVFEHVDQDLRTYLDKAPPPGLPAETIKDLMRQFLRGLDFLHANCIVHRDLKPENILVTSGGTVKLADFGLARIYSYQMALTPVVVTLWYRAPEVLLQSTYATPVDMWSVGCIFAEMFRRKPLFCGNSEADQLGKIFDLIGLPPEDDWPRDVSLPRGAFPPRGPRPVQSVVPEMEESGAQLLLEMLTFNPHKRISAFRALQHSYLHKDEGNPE
T1 sequence (P24385 whole entry partner): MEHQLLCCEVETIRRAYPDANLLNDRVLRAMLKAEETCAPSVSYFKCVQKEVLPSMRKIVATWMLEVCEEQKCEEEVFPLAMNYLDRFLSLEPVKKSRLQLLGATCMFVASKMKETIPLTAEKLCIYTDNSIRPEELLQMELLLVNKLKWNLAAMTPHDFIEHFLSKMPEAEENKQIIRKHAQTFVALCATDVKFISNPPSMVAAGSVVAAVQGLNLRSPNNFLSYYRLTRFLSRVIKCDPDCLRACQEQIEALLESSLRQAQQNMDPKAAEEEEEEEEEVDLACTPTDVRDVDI

| SMILES | IC50 (CDK4/CyclinD1; CDK4/CyclinD1, 200 μM ATP) [nM] | IC50 (CDK2/CyclinE1; CDK2/CyclinE1, 100 μM ATP) [nM] | IC50 (CDK4/CyclinD1; CDK4/CyclinD1) [nM] | IC50 (CDK2/CyclinE1; CDK2/CyclinE1) [nM] |
| --- | --- | --- | --- | --- |
| CC(C)c1cnc2cnc(-c3ccnc(Nc4ccc(N5CCNCC5=O)cn4)n3)cn12 [Synthetic Example 143] | 10 to 100 | > 1000 |  |  |
| COc1nc(-c2nc(Nc3ccc(N4CCOCC4=O)cn3)ncc2F)cc2c1nc(C)n2C1CCCC1O (centres unmarked) [compound 71] |  |  | 10 to 100 | > 1000 |
| COc1nc(-c2nc(Nc3ccc(N4CCOCC4=O)cn3)ncc2F)cc2c1nc(C)n2C(C)CO (centres unmarked) [compound 72] |  |  | 10 to 100 | > 1000 |
| COc1nc(-c2nc(Nc3ccc(N4CCOC4=O)cn3)ncc2F)cc2c1nc(C)n2C(C)C [compound 85] |  |  | 10 to 100 | > 1000 |
| CCN1CCN(c2ccc(Nc3ncc(F)c(-c4cc5c(nc(C)n5C(C)C)c(OC)n4)n3)nc2)C1=O [compound 89] |  |  | 10 to 100 | > 1000 |
| COc1nc(-c2nc(Nc3ccc(N4CCC5(CCNC5=O)CC4)cn3)ncc2F)cc2c1nc(C)n2C(C)C [compound 90] |  |  | 10 to 100 | > 1000 |
| COc1nc(-c2nc(Nc3ccc(N4CCOCC4C)cn3)ncc2F)cc2c1nc(C)n2C(C)C (centres unmarked) [compound 97] |  |  | 10 to 100 | > 1000 |
| CCN1CCN(c2ccc(Nc3ncc(F)c(-c4cc5c(nc(C)n5C(C)C)c(OC)n4)n3)nc2)CC1=O [compound 105] |  |  | 10 to 100 | > 1000 |
| COc1nc(-c2ccnc(Nc3ccn(CC4CCNCC4)n3)n2)cc2c1ncn2C(C)C [compound 108] | 10 to 100 | > 1000 |  |  |
| COc1nc(-c2nc(Nc3ccc(N4CCNC5(CC5)C4)cn3)ncc2F)cc2c1nc(C)n2C(C)C [compound 110] | 10 to 100 | > 1000 |  |  |
| COc1nc(-c2nc(Nc3ccc(C(=O)N4CCC(N)CC4)c(C)n3)ncc2F)cc2c1nc(C)n2C(C)C [compound 120] | 10 to 100 | > 1000 |  |  |
| COc1nc(-c2ccnc(Nc3ccc4c(n3)CCN(C(=O)CO)C4)n2)cc2c1ncn2C(C)C [compound 141] | 10 to 100 | > 1000 |  |  |
| COc1nc(-c2ccnc(Nc3ccc4c(n3)CCN(C(=O)CC#N)C4)n2)cc2c1ncn2C(C)C [compound 142] | 10 to 100 | > 1000 |  |  |
| CC(C)c1cnn2ccc(-c3ccnc(Nc4ccc(C(=O)N5CCC(O)CC5)cc4)n3)cc12 [compound 149] | 10 to 100 | < 10 |  |  |
| CC(C)c1cnn2ccc(-c3ccnc(Nc4ccc(C(=O)N5CCC(N(C)C)C5)cc4F)n3)cc12 (centres unmarked) [compound 152] | 10 to 100 | 10 to 100 |  |  |
| Cc1nn2ccc(-c3ccnc(Nc4ccc(S(N)(=O)=O)nc4)n3)cc2c1C(C)C [compound 182] | 10 to 100 | < 10 |  |  |
| Cc1cc(N2CCNCC2=O)ccc1Nc1nccc(-c2ccn3ncc(C(C)C)c3c2)n1 [compound 186] | 10 to 100 | < 10 |  |  |
| CC(C)c1cnn2ccc(-c3ccnc(Nc4cccc(N5CCNCC5=O)c4)n3)cc12 [compound 187] | 10 to 100 | 10 to 100 |  |  |
| CC(C)c1cnn2ccc(-c3ccnc(Nc4ccc(N5CCNCC5=O)cc4O)n3)cc12 [compound 188] | 10 to 100 | 10 to 100 |  |  |
| COc1cc(N2CCCC(N)C2=O)ccc1Nc1nccc(-c2ccn3ncc(C(C)C)c3c2)n1 (centres unmarked) [compound 222] | 10 to 100 | 10 to 100 |  |  |
| CCN1CCN(Cc2ccc(Nc3ncc(F)c(N4CCc5ncn(C(C)C)c5C4)n3)nc2)CC1 [compound 251] | 10 to 100 | > 1000 |  |  |
| CC(C)n1cnc2c1CN(c1nc(Nc3ccc(S(N)(=O)=O)nc3)ncc1F)CC2 [compound 254] | 10 to 100 | < 10 |  |  |
| CC(C)n1cnc2c(F)nc(-c3ccnc(NC4CCN(S(C)(=O)=O)CC4)n3)cc21 [compound 310] | 10 to 100 | 10 to 100 |  |  |

The remaining lines, values ahead:

| IC50 (CDK4/CyclinD1; CDK4/CyclinD1, 200 μM ATP) [nM] | IC50 (CDK2/CyclinE1; CDK2/CyclinE1, 100 μM ATP) [nM] | IC50 (CDK4/CyclinD1; CDK4/CyclinD1) [nM] | IC50 (CDK2/CyclinE1; CDK2/CyclinE1) [nM] | SMILES |
| --- | --- | --- | --- | --- |
| < 10 | < 10 |  |  | CC(C)c1cnn2ccc(-c3ccnc(Nc4ccc(C(=O)N5CCC(N(C)C)CC5)cc4)n3)cc12 [compound 148] |
| < 10 | < 10 |  |  | CC(C)c1cnn2ccc(-c3ccnc(Nc4ccc(C(=O)N5CCC(O)C5)cc4)n3)cc12 (centres unmarked) [compound 150] |
| < 10 | < 10 |  |  | CC(C)c1cnn2ccc(-c3ccnc(Nc4ccc(C(=O)N5CCC(N(C)C)C5)cc4)n3)cc12 (centres unmarked) [compound 151] |
| < 10 | < 10 |  |  | CC(C)c1cnn2ccc(-c3ccnc(Nc4ccc(C(=O)N5CC(O)C5)cc4)n3)cc12 [compound 153] |
| < 10 | < 10 |  |  | CC(C)c1cnn2ccc(-c3ccnc(Nc4ccc(C(=O)N5CC(N(C)C)C5)cc4)n3)cc12 [compound 154] |
| < 10 | < 10 |  |  | CC(C)c1cnn2ccc(-c3ccnc(Nc4ccc(N5CCC(N(C)C)CC5=O)cc4F)n3)cc12 (centres unmarked) [compound 180] |
| < 10 | < 10 |  |  | CN(C)C1CCN(c2ccc(Nc3nccc(-c4ccn5ncc(C(C)(C)C)c5c4)n3)c(F)c2)C(=O)C1 (centres unmarked) [compound 181] |
| < 10 | 10 to 100 |  |  | CNC1CN(C(=O)c2ccc(Nc3nccc(-c4ccn5ncc(C(C)C)c5c4)n3)cc2)C1 [compound 190] |
| < 10 | < 10 |  |  | CC(C)c1cnn2ccc(-c3ccnc(Nc4ccc(N5CCC(C)(N)CC5=O)cc4Cl)n3)cc12 (centres unmarked) [compound 212] |
| < 10 | 10 to 100 |  |  | CC(C)c1cnn2ccc(-c3ccnc(Nc4ccc(N5CCCC(N)C5=O)cc4F)n3)cc12 (centres unmarked) [compound 223] |
| < 10 | < 10 |  |  | CC(C)c1cnn2ccc(-c3ccnc(Nc4ccc(N5CCNCC5=O)c(F)c4)n3)cc12 [compound 228] |
| < 10 | < 10 |  |  | CC(C)c1cnn2ccc(-c3ccnc(Nc4ccc(N5CCNCC5=O)c(F)c4F)n3)cc12 [compound 229] |
| < 10 | < 10 |  |  | CCNC1CCN(c2ccc(Nc3nccc(-c4ccn5ncc(C(C)C)c5c4)n3)c(F)c2)C(=O)C1 (centres unmarked) [compound 230] |
| < 10 | 10 to 100 |  |  | CNC1CCCN(c2ccc(Nc3nccc(-c4ccn5ncc(C(C)C)c5c4)n3)c(F)c2)C1=O (centres unmarked) [compound 231] |
| < 10 | < 10 |  |  | CC(C)(C)c1cnn2ccc(-c3ccnc(Nc4ccc(N5CCCC(N)C5=O)cc4F)n3)cc12 (centres unmarked) [compound 232] |
| < 10 | < 10 |  |  | CC(C)c1cnn2ccc(-c3ccnc(Nc4ccc(N5CCC(NCCF)CC5=O)cc4)n3)cc12 (centres unmarked) [compound 233] |
| < 10 | < 10 |  |  | CC(C)n1cnc2c1CN(c1nc(Nc3ccc4c(c3)CS(=O)(=O)C4)ncc1F)CC2 [compound 255] |
| < 10 | < 10 |  |  | CC(C)n1cnc2c1CN(c1nc(Nc3ccc(N4CCNCC4=O)cc3F)ncc1F)CC2 [compound 256] |
| < 10 | 10 to 100 |  |  | CC1(C)COc2c(F)cc(-c3ccnc(Nc4ccc(N5CCCC(N)C5=O)nc4)n3)cc21 (centres unmarked) [compound 264] |
| < 10 | 100 to 1000 |  |  | CCN1CCN(c2ccc(Nc3nccc(-c4cc5c(ncn5C(C)C)c(F)n4)n3)nc2)C(=O)C1 [compound 274] |
| < 10 | < 10 |  |  | CC(C)n1cnc2c(F)nc(-c3ccnc(Nc4ccc(N5CCC(C)(N)CC5=O)cc4Cl)n3)cc21 (centres unmarked) [compound 291] |
| < 10 | < 10 |  |  | COc1cc(N2CCC(N(C)C)CC2=O)ccc1Nc1nccc(-c2cc3c(ncn3C(C)C)c(F)n2)n1 (centres unmarked) [compound 296] |
| < 10 | < 10 |  |  | CC(C)n1cnc2c(F)nc(-c3ccnc(Nc4ccc(N5CCC(N(C)C)CC5=O)cc4F)n3)cc21 (centres unmarked) [compound 305] |

Reference: patent US20220296595A1, “CDK INHIBITORS” (QILU REGOR THERAPEUTICS INC., priority 2019, published 2022)
